The subject of series [1] is Queensland fruit flies antennae and palps. Briefly: Electroantennogram (EAG) and Electropalpogram (EPG) screening. Also noted: species or system Bactrocera tryoni. From the text: FIG. 2. Electrophysiological responses of Queensland fruit flies antennae (A) and palps (B) to fungal (FV) components. Graphs located on the upper part of each figure represent the electric potential of the antenna/palp. Arrows indicate points in time at which chemical stimulations are applied. Olfactory “responses” are characterised by sudden drops (spike) of the electric potential in the antenna; the amplitude of which is positively correlated to response strength. Stars indicate statistical significance of response amplitudes elicited by test compounds compared to that of the solvent (blank=paraffin oil). Bars represent the normalized responses relative to a positive control (ethyl hexanoate) of male (grey) and female (white) flies. Letters above bars indicate significant differences in response strength between each sex.
Graphs located on the upper part represent the electric potential of the antenna/palp. Arrows indicate points in time at which chemical stimulations are applied. Olfactory “responses” are characterised by sudden drops (spike) of the electric potential in the antenna; the amplitude of which is positively correlated to response strength. Stars indicate statistical significance of response amplitudes elicited by test compounds compared to that of the solvent (blank=paraffin oil). Bars represent the normalized responses relative to a positive control (ethyl hexanoate) of male (grey) and female (white) flies. Letters above bars indicate significant differences in response strength between male and female Qfly.

Series [2] can be described thus: Release rate from LDPE sachets by gravimetry. The format is physicochemical. To be noted: for Release rate per thickness of LDPE pouch: 22° C., constant, laboratory; for Estimated longevity: standard size sachet (50 cm^2), 1 ml of neat compound. The text has this: Sachets consist of plastic pouches made of Low Density PolyEthylene (LDPE) layflat tubing of determined size and thickness. Each sachet contained one or several dental wicks (approximately 4 cm length and 1 cm diameter) on which a given amount of the neat chemical compound was applied (between 0.1 and 5 g). The impregnated wick (20) was subsequently enclosed in the LDPE pouch (10) and sealed using a heat sealer (FIG. 3).
Release rates of the short chain esters and fungal alcohols were investigated in a range of sachet designs.

For series [3], the system named is Mediterranean fruit fly, Ceratitis capitata. The settings on record: cited from earlier work.
A further series concerns female B. tryoni. Briefly: GC-FID-EAD with odours of infested yellow nectarines. To be noted: female B. tryoni antenna. Also noted: species or system Bactrocera tryoni. On the procedure:
Gas-chromatography linked to electrophysiology (GC-FID-EAD) was conducted using female B. tryoni and odours of infested yellow nectarines (collected by SPME), to identify volatiles of interest as candidate female attractants.

Like-named read-outs stand apart in the source and are kept apart here.

Take `CCC(C)CO` (stereo not shown) [2-Methyl-butanol, 2-methyl-1-butanol]: the results for the “electrophysiological responses (EAG/EPG)” value in series [1] (listed as 2-methyl-1-butanol) and in series [1] (listed as 2-methylbutanol) were “strong electrophysiological responses” and “strong responses”, respectively. Also, the results for the “Release rate per thickness of LDPE pouch” value in series [2] (50 μm LDPE pouch), in series [2] (100 μm LDPE pouch) and in series [2] (150 μm LDPE pouch) were 16.4 mg/day, 4.1 mg/day and 2.1 mg/day, respectively. In addition, the Estimated longevity in series [2] was more than 1 year.
Consider `CCOC(C)=O` [Ethyl acetate], for which the “Release rate per thickness of LDPE pouch” value in series [2] (50 μm LDPE pouch) amounted to 880 mg/day; in series [2] (100 μm LDPE pouch), 302.7 mg/day; in series [2] (150 μm LDPE pouch) it was 180.6 mg/day; in series [2] (200 μm LDPE pouch), 134 mg/day. The Estimated longevity in series [2] is listed as approximately 6 days.
For the compound `CCCC(=O)OCC` [Ethyl butyrate], the “Release rate per thickness of LDPE pouch” value in series [2] (50 μm LDPE pouch) turned out to be 700 mg/day; in series [2] (100 μm LDPE pouch) it was 295 mg/day; in series [2] (150 μm LDPE pouch), 171 mg/day; in series [2] (200 μm LDPE pouch), 127 mg/day. Besides, in series [2], the Estimated longevity is on record as approximately 6 days.
With `CCOC(=O)CC` [Ethyl propionate], the “Release rate per thickness of LDPE pouch” value was determined as 880 mg/day in series [2] (50 μm LDPE pouch), 321 mg/day in series [2] (100 μm LDPE pouch), 200 mg/day in series [2] (150 μm LDPE pouch) and 171 mg/day in series [2] (200 μm LDPE pouch). In addition, the Estimated longevity in series [2] was approximately 5 days.
For `CC(C)CCO` [Isoamyl alcohol], the “electrophysiological responses (EAG/EPG)” value in series [1] is listed as “strong electrophysiological responses”. For the same compound, the results for the “Release rate per thickness of LDPE pouch” value in series [2] (50 μm LDPE pouch), in series [2] (100 μm LDPE pouch) and in series [2] (150 μm LDPE pouch) were 12 mg/day, 3 mg/day and 2 mg/day, respectively. The Estimated longevity in series [2] was more than 1 year.
For the compound `CC(C)CO` [Isobutyl alcohol], the “electrophysiological responses (EAG/EPG)” value in series [1] was “weak and inconsistent responses”; in series [1] (listed as iso-butyl alcohol) it was “strong electrophysiological responses”. Also, the “Release rate per thickness of LDPE pouch” value in series [2] (50 μm LDPE pouch) was found to be 20 mg/day; in series [2] (100 μm LDPE pouch) it was 4 mg/day; in series [2] (150 μm LDPE pouch), 2 mg/day. In series [2], the Estimated longevity was more than 1 year.
Regarding `CCCCCCC1CCC(=O)O1` (stereo not shown) [γ-decalactone], the “electrophysiological response in EAG” value in series [3] is given as “evoke an electrophysiological response”. Also, the “electrophysiological (EAD) response” value in the series on female B. tryoni is on record as “significant response”.

The record behind these values is patent publication US20240000071A1, “DEVICES, COMPOUNDS AND METHODS FOR INSECT CONTROL” (Agriculture Victoria Services Pty Ltd, priority 2020, published 2024).
